Experimental data published in ChEMBL document CHEMBL1201862, “PubChem BioAssay data set” (2004).
Calls of active or inactive are those of the source.

How the values were obtained:
[1] = HPDE-C7 pancreatic duct cell viability loss – fluorescence, HTS (AID 430); format: functional, cell-based; conditions: Homo sapiens
[2] = viability loss of HPDE-C7K cells – cell-based, fluorescence, HTS, primary screen (AID 431); format: functional; conditions: Homo sapiens
Beta-galactosidase = Beta-galactosidase (Escherichia coli, UniProt Q8VNN2); test: Dose response counterscreen for EBI2 assay utilizing the enzyme, b-galactosidase.; format: functional
Chain of Beta-galactosidase (Q8VNN2 whole entry): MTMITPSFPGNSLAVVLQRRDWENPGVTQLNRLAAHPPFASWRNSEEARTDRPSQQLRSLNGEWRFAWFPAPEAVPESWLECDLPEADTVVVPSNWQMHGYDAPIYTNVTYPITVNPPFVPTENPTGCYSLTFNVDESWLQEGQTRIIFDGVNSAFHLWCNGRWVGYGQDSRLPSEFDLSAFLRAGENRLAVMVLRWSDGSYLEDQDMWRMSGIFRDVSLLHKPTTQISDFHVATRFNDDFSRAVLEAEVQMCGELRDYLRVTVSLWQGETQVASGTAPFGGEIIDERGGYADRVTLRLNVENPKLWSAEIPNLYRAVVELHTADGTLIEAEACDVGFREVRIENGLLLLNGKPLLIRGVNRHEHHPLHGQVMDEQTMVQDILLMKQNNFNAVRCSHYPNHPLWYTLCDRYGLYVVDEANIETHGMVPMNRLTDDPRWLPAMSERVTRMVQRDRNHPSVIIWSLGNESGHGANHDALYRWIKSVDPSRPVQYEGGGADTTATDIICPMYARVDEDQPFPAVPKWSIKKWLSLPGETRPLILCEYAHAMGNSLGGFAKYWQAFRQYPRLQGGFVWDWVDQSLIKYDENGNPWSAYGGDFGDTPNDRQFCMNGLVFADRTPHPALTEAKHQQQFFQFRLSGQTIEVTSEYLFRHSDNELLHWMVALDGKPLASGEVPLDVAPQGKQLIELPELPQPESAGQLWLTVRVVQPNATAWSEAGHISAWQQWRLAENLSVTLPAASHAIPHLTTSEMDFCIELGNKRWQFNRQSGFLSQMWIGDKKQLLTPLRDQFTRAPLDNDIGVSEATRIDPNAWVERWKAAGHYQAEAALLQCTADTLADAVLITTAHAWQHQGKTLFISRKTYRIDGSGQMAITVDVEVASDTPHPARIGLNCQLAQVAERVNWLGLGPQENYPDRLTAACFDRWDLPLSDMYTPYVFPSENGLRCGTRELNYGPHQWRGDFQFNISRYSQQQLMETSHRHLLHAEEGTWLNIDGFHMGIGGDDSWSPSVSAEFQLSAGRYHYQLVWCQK

[3] = OVCAR8 cell viability loss – plate reader, dry powder samples, PAX8 project, dose response (AID 743197); format: functional, cell-based; conditions: OVCAR-8
Paired box protein Pax-8 = Paired box protein Pax-8 (Homo sapiens, UniProt Q06710); test: PAX8 transcriptional activity inhibition in RMG-I – RMG-I cells, luciferase, cherry-pick, dose response (AID 687027); format: functional, cell-based;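 further: luciferase reporter driven by Pax8 target thyroperoxidase promoter measured by SteadyGlo luminescence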
Chain of Paired box protein Pax-8 (Q06710 whole entry): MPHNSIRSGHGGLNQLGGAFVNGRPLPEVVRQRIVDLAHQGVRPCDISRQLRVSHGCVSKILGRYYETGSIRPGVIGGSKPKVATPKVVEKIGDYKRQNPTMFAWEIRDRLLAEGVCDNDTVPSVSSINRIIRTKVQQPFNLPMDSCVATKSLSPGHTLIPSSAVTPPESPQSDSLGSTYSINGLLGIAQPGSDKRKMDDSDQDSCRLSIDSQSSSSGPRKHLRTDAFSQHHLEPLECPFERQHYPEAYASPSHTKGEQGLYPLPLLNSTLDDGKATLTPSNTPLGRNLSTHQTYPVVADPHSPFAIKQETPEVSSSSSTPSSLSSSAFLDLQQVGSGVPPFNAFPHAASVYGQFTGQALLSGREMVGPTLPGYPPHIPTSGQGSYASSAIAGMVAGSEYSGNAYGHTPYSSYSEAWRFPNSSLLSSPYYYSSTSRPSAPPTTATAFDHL

[4] = IGROV1 cell killing – plate reader, dry powder samples, PAX8 inhibitor project, dose response (AID 743043); format: functional, cell-based; conditions: IGROV-1
[5] = blockers of HIV-1 envelope-mediated cell-cell fusion – cherry-pick, dose response (AID 652057); format: functional, cell-based
[6] = HIV-1 AD8 envelope cell-cell fusion blockers – cherry-pick, dose response (AID 652062); format: functional, cell-based;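 further: luciferase signal from cell-cell fusion driven by HIV-1 clade B AD8 Env; potency is for inhibitors of fusion seen as a drop in luminescence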
[7] = blockers of HIV-1 ZM109 envelope-driven cell-cell fusion – HeLa effector, CEM target cells, luciferase, cherry-pick, dose response (AID 652058); format: functional, cell-based;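 further: luciferase signal from HIV-1 Env mediated cell-cell fusion of effector and target cells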
[8] = off-target signal loss in HeLa-CEM21 co-culture – HeLa F-luc CTL cells, cherry-picked, counter-screen for HIV-1 Env fusion inhibitor project, dose response (AID 652040); format: functional, cell-based;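 further: potency for signal decrease marking cytotoxic or nonspecific inhibition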
[9] = biological target: Glucose-6-phosphate 1-dehydrogenase (Homo sapiens, UniProt P11413); test: inhibition of Homo sapiens G6PD, dose series – biochemical, fluorescence, selectivity assay for P. falciparum G6PD inhibitor project, dose response (AID 504792); format: functional
Chain of Glucose-6-phosphate 1-dehydrogenase (P11413 whole entry): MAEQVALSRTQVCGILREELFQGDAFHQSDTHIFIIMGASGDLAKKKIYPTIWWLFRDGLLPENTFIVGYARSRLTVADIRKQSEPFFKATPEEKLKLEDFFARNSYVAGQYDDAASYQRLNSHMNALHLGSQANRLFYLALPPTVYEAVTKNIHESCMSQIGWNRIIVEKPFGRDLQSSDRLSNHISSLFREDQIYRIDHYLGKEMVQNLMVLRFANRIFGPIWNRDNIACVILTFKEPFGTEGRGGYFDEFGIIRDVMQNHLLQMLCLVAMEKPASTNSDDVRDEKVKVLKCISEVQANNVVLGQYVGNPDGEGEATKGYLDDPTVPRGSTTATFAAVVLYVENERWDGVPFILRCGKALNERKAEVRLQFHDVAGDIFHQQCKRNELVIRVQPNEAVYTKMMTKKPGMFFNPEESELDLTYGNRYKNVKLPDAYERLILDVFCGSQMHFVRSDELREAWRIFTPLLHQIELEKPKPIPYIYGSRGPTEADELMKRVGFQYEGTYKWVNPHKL

Cytochrome P450 2C9 = Cytochrome P450 2C9 (Homo sapiens, UniProt P11712)
Chain of Cytochrome P450 2C9 (P11712 whole entry): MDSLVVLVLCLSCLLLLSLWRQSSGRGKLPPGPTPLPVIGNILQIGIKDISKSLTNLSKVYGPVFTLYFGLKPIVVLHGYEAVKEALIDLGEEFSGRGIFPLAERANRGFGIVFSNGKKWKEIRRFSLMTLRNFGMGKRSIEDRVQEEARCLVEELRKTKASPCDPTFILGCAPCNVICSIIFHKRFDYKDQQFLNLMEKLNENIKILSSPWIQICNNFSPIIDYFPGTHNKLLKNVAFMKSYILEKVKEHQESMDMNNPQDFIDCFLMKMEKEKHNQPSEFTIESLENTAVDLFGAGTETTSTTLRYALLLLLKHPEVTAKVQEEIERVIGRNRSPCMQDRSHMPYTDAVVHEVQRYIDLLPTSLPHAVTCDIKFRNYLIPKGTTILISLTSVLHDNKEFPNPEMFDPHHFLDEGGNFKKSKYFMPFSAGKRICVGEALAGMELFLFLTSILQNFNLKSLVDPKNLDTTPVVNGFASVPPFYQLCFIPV

Cytochrome P450 3A4 = Cytochrome P450 3A4 (Homo sapiens, UniProt P08684);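 further: CYP3A4 tested as one member of a cytochrome P450 panel screen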
Chain of Cytochrome P450 3A4 (P08684 whole entry): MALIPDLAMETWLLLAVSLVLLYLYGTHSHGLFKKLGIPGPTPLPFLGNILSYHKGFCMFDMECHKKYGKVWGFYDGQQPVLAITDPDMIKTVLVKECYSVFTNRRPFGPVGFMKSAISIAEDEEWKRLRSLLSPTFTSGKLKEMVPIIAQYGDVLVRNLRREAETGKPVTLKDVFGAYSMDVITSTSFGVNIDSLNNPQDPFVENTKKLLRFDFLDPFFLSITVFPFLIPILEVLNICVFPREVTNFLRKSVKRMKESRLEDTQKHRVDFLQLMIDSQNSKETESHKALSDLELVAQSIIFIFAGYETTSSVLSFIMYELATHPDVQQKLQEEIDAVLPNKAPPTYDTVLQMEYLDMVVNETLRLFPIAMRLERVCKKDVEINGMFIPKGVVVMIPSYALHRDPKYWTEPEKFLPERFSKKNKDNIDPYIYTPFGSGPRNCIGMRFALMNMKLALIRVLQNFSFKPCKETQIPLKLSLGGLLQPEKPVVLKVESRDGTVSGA

[10] = OVCAR-3 cell viability loss – plate reader, dry powder samples, PAX8 inhibitor project, dose response (AID 743044); format: functional, cell-based
[11] = biological target: T1, Heat shock factor protein 1 (Mus musculus, UniProt P38532); test: enhancement of HSF1-driven luciferase signal – cell-based, NIH3T3, luminescence, dose retest, confirmation (AID 435004); format: functional;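 further: stress induced by proteasome inhibitor MG132 added 30 min after compound; luciferase reporter driven by HSF1 response element in NIH3T3 cells; actives raise luminescence as potentiators of the MG132 stress response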
T1 sequence (P38532 whole entry): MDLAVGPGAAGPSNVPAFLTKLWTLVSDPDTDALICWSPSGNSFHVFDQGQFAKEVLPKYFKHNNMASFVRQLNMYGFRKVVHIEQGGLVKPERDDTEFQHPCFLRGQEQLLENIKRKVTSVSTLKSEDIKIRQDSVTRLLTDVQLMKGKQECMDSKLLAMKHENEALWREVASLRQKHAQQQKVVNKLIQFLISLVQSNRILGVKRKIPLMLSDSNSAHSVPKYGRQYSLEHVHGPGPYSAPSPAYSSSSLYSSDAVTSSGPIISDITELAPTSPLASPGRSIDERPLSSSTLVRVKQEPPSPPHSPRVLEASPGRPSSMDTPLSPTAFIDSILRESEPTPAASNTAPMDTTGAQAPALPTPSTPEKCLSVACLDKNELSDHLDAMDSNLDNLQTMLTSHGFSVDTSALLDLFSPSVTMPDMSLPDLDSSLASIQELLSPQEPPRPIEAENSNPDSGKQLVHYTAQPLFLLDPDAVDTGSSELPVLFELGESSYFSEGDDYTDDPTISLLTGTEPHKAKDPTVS

[12] = viability loss in THP-1 monocytes – THP-1 cells, cytotoxicity control for Vif-APOBEC3G degradation inhibitor project, dose response (AID 1117359); format: functional; conditions: THP-1
Cytochrome P450 2C19 = Cytochrome P450 2C19 (Homo sapiens, UniProt P33261); test: Cytochrome panel assay with activity outcomes. Panel member name: p450-cyp2c19 Compounds with AC50 equal or less than 10 uM are considered active; format: functional
Genome polyprotein = Genome polyprotein (dengue virus type 2, UniProt P29990); test: flavivirus cap methylation enzyme inhibition – biochemical, confirmation dose response, primary screen (AID 588689); format: functional
Chain of Genome polyprotein (P29990 2492-3391 limits assumed): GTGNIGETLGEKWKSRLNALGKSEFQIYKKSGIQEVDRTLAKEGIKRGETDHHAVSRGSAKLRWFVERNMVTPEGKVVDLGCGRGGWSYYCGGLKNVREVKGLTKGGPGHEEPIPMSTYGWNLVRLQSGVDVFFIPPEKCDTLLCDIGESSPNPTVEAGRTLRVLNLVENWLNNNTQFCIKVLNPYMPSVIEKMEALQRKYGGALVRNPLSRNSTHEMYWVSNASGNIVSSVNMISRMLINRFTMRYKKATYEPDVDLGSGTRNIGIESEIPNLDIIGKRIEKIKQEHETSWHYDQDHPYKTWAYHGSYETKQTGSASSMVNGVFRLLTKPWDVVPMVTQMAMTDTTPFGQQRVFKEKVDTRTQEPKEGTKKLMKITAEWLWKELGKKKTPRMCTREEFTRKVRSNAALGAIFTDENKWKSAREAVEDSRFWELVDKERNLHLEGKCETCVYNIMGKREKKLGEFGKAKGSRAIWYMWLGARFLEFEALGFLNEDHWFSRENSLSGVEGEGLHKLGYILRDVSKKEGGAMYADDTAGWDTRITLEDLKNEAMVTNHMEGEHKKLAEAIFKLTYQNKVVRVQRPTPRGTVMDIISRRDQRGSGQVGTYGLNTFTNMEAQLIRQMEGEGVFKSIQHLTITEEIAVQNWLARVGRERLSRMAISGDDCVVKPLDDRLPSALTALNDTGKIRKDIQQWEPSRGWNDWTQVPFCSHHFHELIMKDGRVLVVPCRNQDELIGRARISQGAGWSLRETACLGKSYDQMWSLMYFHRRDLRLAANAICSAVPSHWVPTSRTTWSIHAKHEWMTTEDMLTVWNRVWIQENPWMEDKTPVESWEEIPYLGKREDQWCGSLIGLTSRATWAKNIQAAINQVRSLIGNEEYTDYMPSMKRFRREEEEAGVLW

[13] = biological target: T2, Small ubiquitin-related modifier 1 (Homo sapiens, UniProt P63165); test: SUMO1 protein-protein binding blockers, potency – biochemical, FRET, dose response (AID 624383); format: functional; conditions: read-out: IC50_Mean
T2 sequence (P63165 whole entry): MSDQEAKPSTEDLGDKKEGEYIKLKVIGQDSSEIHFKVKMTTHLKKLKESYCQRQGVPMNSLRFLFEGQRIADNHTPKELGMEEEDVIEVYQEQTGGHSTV

[14] = biological target: T2, Small ubiquitin-related modifier 1; test: SUMO1 protein interaction blockers, potency – biochemical, fluorescence polarization, uHTS hits, dose response (AID 624382); format: functional; conditions: read-out: IC50_Mean
Mu-type opioid receptor = Mu-type opioid receptor (Homo sapiens, UniProt P35372); format: functional, cell-based;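 further: U2OS cells with beta-arrestin recruitment to OPRM1 by beta-gal complementation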
Chain of Mu-type opioid receptor (P35372 whole entry): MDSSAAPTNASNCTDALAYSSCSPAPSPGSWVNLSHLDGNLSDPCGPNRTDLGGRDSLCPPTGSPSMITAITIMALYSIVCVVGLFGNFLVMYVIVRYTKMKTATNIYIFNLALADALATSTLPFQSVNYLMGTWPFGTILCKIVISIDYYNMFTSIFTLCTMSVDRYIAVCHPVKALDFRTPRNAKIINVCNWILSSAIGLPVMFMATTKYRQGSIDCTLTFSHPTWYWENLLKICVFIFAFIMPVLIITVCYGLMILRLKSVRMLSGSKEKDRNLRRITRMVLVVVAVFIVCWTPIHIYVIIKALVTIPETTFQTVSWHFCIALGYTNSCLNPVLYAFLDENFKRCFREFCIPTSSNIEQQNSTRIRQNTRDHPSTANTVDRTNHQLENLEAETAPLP

[15] = biological target: 5-hydroxytryptamine receptor 2A (Mus musculus, UniProt P35363); format: functional, cell-based;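 further: CHO-K1 cells with tagged receptor and beta-arrestin; agonist potency measured as compound-induced activation of the receptor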
Chain of 5-hydroxytryptamine receptor 2A (P35363 whole entry): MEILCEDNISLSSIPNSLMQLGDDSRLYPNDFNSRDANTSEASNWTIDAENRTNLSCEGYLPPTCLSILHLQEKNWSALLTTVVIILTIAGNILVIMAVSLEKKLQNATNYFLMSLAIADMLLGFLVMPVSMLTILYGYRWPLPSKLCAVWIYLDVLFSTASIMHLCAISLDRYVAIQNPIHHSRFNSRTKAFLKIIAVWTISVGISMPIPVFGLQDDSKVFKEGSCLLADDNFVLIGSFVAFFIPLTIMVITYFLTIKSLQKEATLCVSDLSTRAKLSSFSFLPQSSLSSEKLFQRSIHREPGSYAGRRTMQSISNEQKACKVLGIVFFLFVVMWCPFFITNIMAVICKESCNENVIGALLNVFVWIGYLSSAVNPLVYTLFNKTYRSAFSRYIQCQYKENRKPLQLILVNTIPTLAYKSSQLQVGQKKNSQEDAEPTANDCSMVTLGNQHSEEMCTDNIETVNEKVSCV

Prothrombin = Prothrombin (Homo sapiens, UniProt P00734); test: Thrombin 1536 HTS Dose Response Confirmation. [Related pubchem assays: 1046 (Thrombin 1536 HTS; hits were confirmed in this assay)]; format: functional
[16] = microbe, parasite or virus in culture; format: functional; conditions: Mycobacterium tuberculosis
[17] = biological target: T3, Ubiquitin-conjugating enzyme E2 N (Homo sapiens, UniProt P61088); format: functional;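 further: Dose-response confirmation in a TR-FRET assay detecting UBC13-driven polyubiquitin chain formation, inhibition measured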
T3 sequence (P61088 whole entry): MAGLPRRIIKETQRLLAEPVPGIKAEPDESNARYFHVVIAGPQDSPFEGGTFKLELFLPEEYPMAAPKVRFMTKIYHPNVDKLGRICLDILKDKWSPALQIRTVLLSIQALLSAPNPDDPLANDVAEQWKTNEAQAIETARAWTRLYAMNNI

[18] = biological target: T4, Rac GTPase-activating protein 1 (Homo sapiens, UniProt Q9H0H5); test: blockers of MgcRacGAP-driven Rac1 GTP hydrolysis – biochemical, ADP Hunter fluorescence, primary and confirmatory, confirmation (AID 624330); format: functional
T4 sequence (Q9H0H5 whole entry): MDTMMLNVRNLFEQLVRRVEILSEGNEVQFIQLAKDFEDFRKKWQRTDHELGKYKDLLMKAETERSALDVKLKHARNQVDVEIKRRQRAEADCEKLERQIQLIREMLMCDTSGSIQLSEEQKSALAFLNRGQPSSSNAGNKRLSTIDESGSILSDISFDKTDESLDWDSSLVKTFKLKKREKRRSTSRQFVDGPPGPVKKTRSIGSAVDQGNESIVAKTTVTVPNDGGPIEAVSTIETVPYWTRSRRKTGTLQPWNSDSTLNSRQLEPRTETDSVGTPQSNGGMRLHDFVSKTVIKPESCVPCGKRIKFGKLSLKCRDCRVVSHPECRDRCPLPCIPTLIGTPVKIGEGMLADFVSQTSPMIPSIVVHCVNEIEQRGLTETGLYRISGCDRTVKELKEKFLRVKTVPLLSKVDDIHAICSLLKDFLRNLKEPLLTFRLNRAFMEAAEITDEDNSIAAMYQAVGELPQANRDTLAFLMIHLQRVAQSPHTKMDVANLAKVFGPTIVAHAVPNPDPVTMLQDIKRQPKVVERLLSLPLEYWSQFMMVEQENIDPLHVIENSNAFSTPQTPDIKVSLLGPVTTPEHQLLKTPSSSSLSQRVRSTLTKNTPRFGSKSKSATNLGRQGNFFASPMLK

[19] = T. cruzi growth inhibition in host cells, dose response, cell-based, plate reader, dry powder, set 2 (AID 652275); format: functional

## COc1ccc(C(=O)CSc2cc(C)nc3nc(C)nn23)cc1OC
[1]
  EC50: > 20 µM (not active)
[2]
  EC50: > 20 µM (not active)

## c1ccc(OCCNc2nc(NCC3CC3)nc3cc(-c4ccccc4)sc23)cc1
Beta-galactosidase
  IC50: 104 µM (inactive)

## O=C(C[C@H]1CC[C@@H]2[C@H](COC[C@H](O)CN2S(=O)(=O)c2cccc(F)c2)O1)Nc1ccc(-c2ccccc2)cc1
[3]
  AC50: 42.6 µM (active)
Paired box protein Pax-8
  AC50: 17.2 µM (active)
[4]
  AC50: 59.4 µM (active)

## c1ccc2c(N3CCCCC3)ncnc2c1
[5]
  AC50: 31.5 µM (active)
[6]
  AC50: 53.9 µM (active)
[7]
  AC50: 5.37 µM (active)
[8]
  AC50: 56.2 µM (active)

## C#CCCc1cscc1/C=[N+](\[O-])c1ccc(C(=O)OCC)cc1
[9]
  IC50: 29.7 µM (inactive)

## CCOC(=O)c1c(C)nc2sc3c(=O)n(-c4ccc(C(C)=O)cc4)nnc3c2c1-c1ccc(Cl)cc1
Cytochrome P450 2C9
  AC50: 2.82 µM (inconclusive)
Cytochrome P450 3A4
  AC50: inconclusive

## C[C@H](CO)N1C[C@H](C)[C@@H](CN(C)Cc2ccc(Oc3ccccc3)cc2)Oc2ccc(NS(=O)(=O)c3ccc(Cl)cc3)cc2CC1=O
[3]
  AC50: 62.6 µM (active)
[10]
  AC50: 68.7 µM (active)
Paired box protein Pax-8
  AC50: 7.43 µM (active)
[4]
  AC50: 67.8 µM (active)

## CCOC(=O)c1sc2nc(CC(=O)OC)nc(NCc3ccco3)c2c1C
[11]
  EC50: 63.7 µM (active)
[12]
  CC50: 32.7 µM (active)

## O=C(O)CC(c1cccc2ccccc12)n1cccc1 (centres undefined)
Cytochrome P450 2C19
  AC50: 28.2 µM (inconclusive)
Cytochrome P450 3A4
  AC50: inconclusive

## O=C(O)c1cccc(-n2cccc2/C=C/[N+](=O)[O-])c1
Genome polyprotein
  IC50: 53.6 µM (active)
[13]
  IC50: 26.5 µM (inactive)
[14]
  IC50: > 66.6 µM (inactive)

## CC(=O)N1CCc2cc(C(=O)CN3CCN(c4ccccn4)CC3)ccc21
Mu-type opioid receptor
  EC50: 92.5 µM (inactive)
[15]
  EC50: 0.257 µM (active)

## Nc1nc(-c2ccco2)nn1C(=O)c1ccccc1
Prothrombin
  IC50: 0.926 µM (active)

## CCc1ccccc1N1CSC2=C(C#N)C(c3ccccc3F)CC(=O)N2C1 (centres undefined)
[9]
  IC50: > 80 µM (inactive)

## C=C1c2c(Cl)ccc(O)c2C(=O)C2=C(O)[C@]3(O)C(=O)C(C(N)=O)=C(O)[C@@H](N(C)C)[C@@H]3[C@@H](O)[C@H]12.O=C(O)c1cc(S(=O)(=O)O)ccc1O [MECLOCYCLINE SULFOSALICYLATE]
[16]
  CC50: 16.4 µM (active)
[17]
  IC50: > 20 µM (inactive)
[18]
  IC50: 63 µM (active)
[13]
  IC50: 39.7 µM (inactive)
[14]
  IC50: 8.79 µM (active)

## CN(C)CC#Cc1cccc(-c2nc(C(=O)NCc3ccc4c(c3)OCO4)cc3c2[C@@H](CCO)N([S+]([O-])C(C)(C)C)C3)c1 (some centres undefined)
[19]
  AC50: 0.0993 µM (active)
